{"source": "patent US8981059B2", "about": "“Platelet aggregation inducing substance” (JNC Corporation, priority 2006, dated 2015)", "origin": "cited, not measured here", "test_system": "platelets", "conditions": "as disclosed in the non-patent documents", "data": [{"substance": "-(Gly-Pro-Hyp)10- [polypeptide -(Gly-Pro-Hyp)10-]", "values": [{"measurement": "platelet aggregation inducing activity", "value": "low"}]}]}
